Measurements published in paper PMC9569954, “The Antidepressant-like Activity, Effects on Recognition Memory Deficits, Bioavailability, and Safety after Chronic Administration of New Dual-Acting Small Compounds Targeting Neuropsychiatric Symptoms in Dementia” (International Journal of Molecular Sciences, 2022).

Tested on: rats
Assay: 18-hour spontaneous activity monitoring
Type: in vivo, male Wistar rats
Settings: rat, 1 mg/kg/day i.p.
Method: Spontaneous activity was measured on the 20th day of the treatment with a special, innovative, radio-frequency identification system (RFID-system), TraffiCage (TSE-Systems, Bad Homburg, Germany). The test was conducted according to the method described previously. The animals had RFID transmitters implanted subcutaneously, which tracked the time they spent in different areas of the cage.

SMILES | spontaneous activity vs vehicle (five and six hours after 20-day administration) | spontaneous activity vs vehicle (eighteen hours after 20-day administration)
COc1cccc(N2CCN(CC3CCN(c4ncnc5cc(OC)c(OC)cc45)C3)CC2)c1 (centres unmarked) [PQA-AZ4, 6,7-Dimethoxy-4-(3-((4-(3-methoxyphenyl)piperazin-1-yl)methyl)pyrrolidin-1-yl)quinazoline] | increased | –
COc1cc2ncnc(N3CCC(CN4CCN(c5ccc(Cl)cc5)CC4)C3)c2cc1OC (centres unmarked) [PQA-AZ6, 4-(3-((4-(4-Chlorophenyl)piperazin-1-yl)methyl)pyrrolidin-1-yl)-6,7-dimethoxyquinazoline] | – | decreased
